Results taken from patent publication US20110152090A1, “HERBICIDAL COMPOSITIONS COMPRISING FLUFENACET” (Bayer CropScience AG, priority 2009, published 2011).

How the values were obtained:
Format in all cases: in vivo
LOLPE (Lolium perenne) [1] = test: Greenhouse trial: pre-sowing application vs PE application (test method 6)
Protocol: (§1) In the standard design of the test, seeds of various broad-leaved weed and weed grass biotypes (origins) were sown in a 8-13 cm diameter pot filled with natural soil of a standard field soil (loamy silt; non-sterile) and covered with a covering soil layer of about 1 cm. The pots were then cultivated in a greenhouse (12-16 h of light, temperature day 20-22° C., night 15-18° C.) until the time of application. The pots were treated on a laboratory track sprayer with spray liquors comprising the compositions according to the invention, mixtures of the prior art or components used individually. Application of the active compounds or active compound combinations formulated as WG, WP, EC or otherwise was carried out at the appropriate growth stages of the plants. The application rate for the spray application was 100-600 l of water/ha. After the treatment, the plants were returned to the greenhouses.
(§2) About 3 weeks after the application, the soil action or/and foliar action was assessed visually according to a scale of 0-100% in comparison to an untreated comparative group: 0%=no noticeable effect compared to the untreated comparative group; 100%=full effect compared to the untreated comparative group.
(§3) (notes: the term “seeds” also includes vegetative propagation forms such as, for example, rhizome pieces; abbreviations used: h light=hours of illumination, g of AS/ha=gram of active substance per hectare, l/ha=liter per hectare, S=sensitive, R=resistant) • 1. Pre-emergence action against weeds: seeds of various broad-leaved weed and weed grass biotypes (origins) were sown in a 8-13 cm diameter pot filled with natural soil of a standard field soil (loamy silt; non-sterile) and covered with a covering soil layer of about 1 cm. The pots were then cultivated in a greenhouse (12-16 h of light, temperature day 20-22° C., night 15-18° C.) until the time of application. The pots were treated at the BBCH stage 00-10 of the seeds/plants on a laboratory track sprayer with spray liquors comprising the compositions according to the invention, mixtures or components used individually, as WG, WP, EC or other formulations. The application rate for the spray application was 100-600 l of water/ha. After the treatment, the plants were returned to the greenhouses and, when required, treated with fertilizer and watered. • 2. Post-emergence action against weeds: seeds of various broad-leaved weed and weed grass biotypes (origins) were sown in a 8-13 cm diameter pot filled with natural soil of a standard field soil (loamy silt; non-sterile) and covered with a covering soil layer of about 1 cm. The pots were then cultivated in a greenhouse (12-16 h of light, temperature day 20-22° C., night 15-18° C.) until the time of application. The pots were treated at various BBCH stages between 11-25 of the seeds/plants, i.e. generally between two to three weeks after the start of the cultivation, on a laboratory track sprayer with spray liquors comprising the compositions according to the invention, mixtures or components used individually, as WG, WP, EC or other formulations. The application rate for the spray application was 100-600 l of water/ha. After the treatment, the plants were returned to the greenhouses and, when required, treated with fertilizer and watered. • 3. Pre-emergence action against weeds with and without incorporation of active compound: seeds of various broad-leaved weed and weed grass biotypes (origins) were sown in a 8-13 cm diameter pot filled with natural soil of a standard field soil (loamy silt; non-sterile). […]

AVEFA (Avena fatua) [2] = test: as above
Protocol: as §1, §2, §3

[3] = test system: HORVS (Hordeum vulgare, summer barley); test: Greenhouse trial: different soil types (test method 8), crop; conditions: g AS/ha: (A) 120, (B) 1200, (C) 90
Protocol: as §1, §2, §3

LOLPE (Lolium perenne) [4] = test: Greenhouse trial: different soil types (test method 8); conditions: g of AS/ha: (A) 120, (B) 1200, (C) 90
Protocol: as §1, §2, §3

[5] = test system: MATCH (Matricaria chamomilla); test: as above; conditions: g of AS/ha: (A) 120, (B) 1200, (C) 90
Protocol: as §1, §2, §3

[6] = test system: HORVS (Hordeum vulgare, summer barley); test: Greenhouse trial: selective PO action (test method 5); conditions: PO application; g of AS/ha: (A) 120, (B) 1600, (C) 120
Protocol: as §1, §2
(§4) (notes: the term “seeds” also includes vegetative propagation forms such as, for example, rhizome pieces; abbreviations used: h light=hours of illumination, g of AS/ha=gram of active substance per hectare, l/ha=liter per hectare, S=sensitive, R=resistant) • 1. Pre-emergence action against weeds: seeds of various broad-leaved weed and weed grass biotypes (origins) were sown in a 8-13 cm diameter pot filled with natural soil of a standard field soil (loamy silt; non-sterile) and covered with a covering soil layer of about 1 cm. The pots were then cultivated in a greenhouse (12-16 h of light, temperature day 20-22° C., night 15-18° C.) until the time of application. […]

[7] = test system: TRZAS (Triticum aestivum, summer wheat); test: Greenhouse trial: pre-sowing application vs PE application (test method 6), crop, pre-sowing part; conditions: application 7 days prior to sowing; g AS/ha: (A) 90, (B) 1200, (C) 90
Protocol: as §1, §2, §4

POAAN (Poa annua) [8] = test: Greenhouse trial: PE soil application vs incorporation into the soil (test methods 1, 3); conditions: g of AS/ha: (A) 90, (B) 1200, (C) 90, (D) 300
Protocol: as §1, §2, §3

STEME (Stellaria media) [9] = test: as above; conditions: g of AS/ha: (A) 90, (B) 1200, (C) 90, (D) 300
Protocol: as §1, §2, §3

[10] = test system: STEME (Stellaria media), sensitive and resistant; test: Greenhouse trial: resistant biotypes, PE application (test method 9); conditions: g of AS/ha: (A) 90, (B) 1200, (C) 90, iodosulfuron 10
Protocol: as §1, §2, §3

[11] = test system: LOLSS (Lolium species), sensitive and resistant; test: as above; conditions: g of AS/ha: (A) 90, (B) 1200, (C) 90, iodosulfuron 10
Protocol: as §1, §2, §3

[12] = test system: MATCH (Matricaria chamomilla), sensitive and resistant; test: as above; conditions: g of AS/ha: (A) 90, (B) 1200, (C) 90, iodosulfuron 10
Protocol: as §1, §2, §3

[13] = test system: APESV (Apera Spica-venti); test: Greenhouse trial: PO application (test method 2); conditions: g of AS/ha: (A) 120, (B) 1600, (C) 120
Protocol: as §1, §2, §3

POAAN (Poa annua) [14] = test: Greenhouse trial: PO application (test method 2); conditions: g of AS/ha: (A) 120, (B) 1600, (C) 120
Protocol: as §1, §2, §3

STEME (Stellaria media) [15] = test: Greenhouse trial: PO application (test method 2); conditions: g of AS/ha: (A) 120, (B) 1600, (C) 120
Protocol: as §1, §2, §3

[16] = test system: TRZAS (Triticum aestivum, summer wheat); test: Greenhouse trial: crop selectivity, PE soil application vs incorporation (test methods 3, 4); conditions: g of AS/ha: (A) 90, (B) 1200, (C) 90, (D) 300
Protocol: as §1
as §2, with “group. […]” for “group.”

[17] = test system: APESV (Apera Spica-venti); test: Greenhouse trial: different sowing depths, PE application (test method 10); conditions: g of AS/ha: (A) 90, (B) 1200, (C) 90
Protocol: as §1, §2, §3

[18] = test system: MATCH (Matricaria chamomilla); test: as above; conditions: g of AS/ha: (A) 90, (B) 1200, (C) 90
Protocol: as §1, §2, §3

LOLPE (Lolium perenne) [19] = test: Greenhouse trial: different irrigation systems (test method 7); conditions: g of AS/ha: (A) 120, (B) 1200, (C) 90
Protocol: as §1, §2, §3

[20] = test system: MATCH (Matricaria chamomilla); test: as above; conditions: g of AS/ha: (A) 120, (B) 1200, (C) 90
Protocol: as §1, §2, §3

AVEFA (Avena fatua) [21] = test: as above; conditions: g of AS/ha: (A) 120, (B) 1200, (C) 90
Protocol: as §1, §2, §3

[22] = test system: HORVS (Hordeum vulgare, summer barley); test: Greenhouse trial: pre-sowing application vs PE application (test method 6), crop, PE part; conditions: PE application; g of AS/ha: (A) 90, (B) 1200, (C) 90
Protocol: as §1, §2, §4

[23] = PE application, g of AS/ha: (A) 90, (B) 1200, (C) 90
[24] = application 7 days prior to sowing, g AS/ha: (A) 90, (B) 1200, (C) 90

O=C(Nc1ccc(F)cc1F)c1cccnc1Oc1cccc(C(F)(F)F)c1 [(C) diflufenican, N-(2,4-difluorophenyl)-2-[3-(trifluoromethyl)phenoxy]-3-pyridinecarboxamide]
activity LOLPE (visual scale 0-100%) (LOLPE (Lolium perenne) [1]; [23]): 20% | activity LOLPE (visual scale 0-100%) (LOLPE (Lolium perenne) [1]; [24]): 10% | activity AVEFA (visual scale 0-100%) (AVEFA (Avena fatua) [2]; [23]): 30% | activity AVEFA (visual scale 0-100%) (AVEFA (Avena fatua) [2]; [24]): 10% | activity on crop HORVS IU soil (visual scale 0-100%) ([3]; IU soil): 0% | activity on crop HORVS IU/EC73 soil (visual scale 0-100%) ([3]; IU/EC73 soil): 0% | activity LOLPE IU soil (visual scale 0-100%) (LOLPE (Lolium perenne) [4]; IU soil): 45% | activity LOLPE IU/EC73 soil (visual scale 0-100%) (LOLPE (Lolium perenne) [4]; IU/EC73 soil): 0% | activity MATCH IU soil (visual scale 0-100%) ([5]; IU soil): 40% | Difference of the soil types, MATCH ([5]; IU/EC73 soil vs IU soil): −5% | activity MATCH IU/EC73 soil (visual scale 0-100%) ([5]; IU/EC73 soil): 35% | activity on crop HORVS (visual scale 0-100%) [6]: 5% | activity on crop TRZAS (visual scale 0-100%) [7]: 5% | activity POAAN (visual scale 0-100%) (POAAN (Poa annua) [8]; PE application): 70% | activity POAAN (visual scale 0-100%) (POAAN (Poa annua) [8]; incorporation into the soil): 92% | activity STEME (visual scale 0-100%) (STEME (Stellaria media) [9]; PE application): 50% | activity STEME (visual scale 0-100%) (STEME (Stellaria media) [9]; incorporation into the soil): 95% | activity STEME resistant (visual scale 0-100%) ([10]; resistant biotype): 50% | activity STEME sensitive (visual scale 0-100%) ([10]; sensitive biotype): 70% | activity LOLSS resistant (visual scale 0-100%) ([11]; resistant biotype): 20% | activity LOLSS sensitive (visual scale 0-100%) ([11]; sensitive biotype): 80% | activity MATCH resistant (visual scale 0-100%) ([12]; resistant biotype): 30% | activity MATCH sensitive (visual scale 0-100%) ([12]; sensitive biotype): 30% | activity APESV (visual scale 0-100%) [13]: 5% | activity POAAN (visual scale 0-100%) (POAAN (Poa annua) [14]): 5% | activity STEME (visual scale 0-100%) (STEME (Stellaria media) [15]): 30% | activity on crop TRZAS (visual scale 0-100%) ([16]; PE application): 0% | activity on crop TRZAS (visual scale 0-100%) ([16]; incorporation into the soil): 30% | activity APESV 5 mm (visual scale 0-100%) ([17]; sowing depth 5 mm): 5% | activity APESV 20 mm (visual scale 0-100%) ([17]; sowing depth 20 mm): 5% | activity MATCH 5 mm (visual scale 0-100%) ([18]; sowing depth 5 mm): 60% | activity MATCH 20 mm (visual scale 0-100%) ([18]; sowing depth 20 mm): 70% | activity LOLPE (visual scale 0-100%) (LOLPE (Lolium perenne) [19]; irrigation from above): 20% | activity LOLPE (visual scale 0-100%) (LOLPE (Lolium perenne) [19]; irrigation from below): 20% | activity MATCH (visual scale 0-100%) ([20]; irrigation from above): 0% | activity MATCH (visual scale 0-100%) ([20]; irrigation from below): 50% | activity AVEFA (visual scale 0-100%) (AVEFA (Avena fatua) [21]; irrigation from above): 50% | activity AVEFA (visual scale 0-100%) (AVEFA (Avena fatua) [21]; irrigation from below): 30% | activity on crop HORVS (visual scale 0-100%) [22]: 5%
